Data: patent US7049490B2, “Gibberellin 3β-hydroxylase genes of rice and uses thereof” (priority 1999, dated 2006)
Entries after “also recorded” stand apart in the source; their conditions may differ.

Tests used:
[1] = biological target: T1, Os3β-1 fusion protein (Oryza sativa subsp. japonica, UniProt Q6AT12, A27T/D23H/DEL15-17/DUP228-228); experiment: Enzymatic activity assay of recombinant Os3β-1 fusion protein with gibberellin substrates, products identified by GC-MS; assay type: biochemical, rice (Oryza sativa); conditions: E. coli supernatant with Os3β-1 fusion protein, cofactors ascorbate, ferrous iron, 2-ketoglutarate
T1 construct: a full-length cDNA is synthesized by RT-PCR using primers provided with restriction enzyme sites and subcloned into multi-cloning sites of the pMAL-c2 expression vector; made in house; host or cells: E. coli JM109
Experimental: (§1) cDNAs for the predicted protein-coding regions of the Os3β-1 and Os3β-2 genes were each inserted into the pMAL-c2 expression vector (New England Biolabs, Beverly, Mass.) in the sense orientation to obtain a fusion translation product. The constructs thus obtained, pMAL-Os3β-1 and pMAL-Os3β-2, were expressed in E. coli strain JM109. Bacterial cells were cultured by shaking in 2×YT medium containing 100 mg/L ampicillin at 37° C. overnight. Then, the culture was diluted 100-fold with a fresh 2×YT medium containing 100 mg/L ampicillin, and further cultured with shaking at 30° C. Four hours later, IPTG was added to the culture to a final concentration of 1 mM, and the mixture was incubated with shaking at 17° C. for further 18 h. After the completion of culturing, the bacterial cells were collected, washed with a washing buffer (containing 50 mM Tris-HCl (pH 8.0), 10% (w/v) glycerol, and 2 mM DTT), suspended in the washing buffer containing lysozyme (1 mg/ml), and allowed to stand for 30 min on ice.
(§2) The cell lysate thus obtained was sonicated, centrifuged, and the supernatant was subjected to SDS-PAGE to confirm the expression of the fusion protein. For the assay of enzymatic activity of the Os3β-1 fusion protein, the supernatant was incubated with various gibberellins and cofactors (ascorbate, ferrous iron, and 2-ketoglutarate). For the activity assay of the Os3β-2 fusion protein, the supernatant was purified on a column of amylose resin according to the method described in the manual, and the purified protein thus obtained was similarly incubated as described above. Metabolized gibberellins were identified using GC-MS.

[2] = biological target: T2, Os3β-2 fusion protein (Oryza sativa subsp. japonica, UniProt Q9FU53, G53R); experiment: Enzymatic activity assay of purified recombinant Os3β-2 fusion protein with gibberellin substrates, products identified by GC-MS; assay type: biochemical, rice (Oryza sativa); conditions: amylose-resin purified Os3β-2 fusion protein, cofactors ascorbate, ferrous iron, 2-ketoglutarate
T2 construct: a full-length cDNA is synthesized by RT-PCR using primers provided with restriction enzyme sites and subcloned into multi-cloning sites of the pMAL-c2 expression vector; made in house; host or cells: E. coli JM109
Experimental: as §1, §2

T1 sequence (Q6AT12 other isoform, or with tags, fused parts or gaps DEL15-17/D23H/A27T/DUP228-228): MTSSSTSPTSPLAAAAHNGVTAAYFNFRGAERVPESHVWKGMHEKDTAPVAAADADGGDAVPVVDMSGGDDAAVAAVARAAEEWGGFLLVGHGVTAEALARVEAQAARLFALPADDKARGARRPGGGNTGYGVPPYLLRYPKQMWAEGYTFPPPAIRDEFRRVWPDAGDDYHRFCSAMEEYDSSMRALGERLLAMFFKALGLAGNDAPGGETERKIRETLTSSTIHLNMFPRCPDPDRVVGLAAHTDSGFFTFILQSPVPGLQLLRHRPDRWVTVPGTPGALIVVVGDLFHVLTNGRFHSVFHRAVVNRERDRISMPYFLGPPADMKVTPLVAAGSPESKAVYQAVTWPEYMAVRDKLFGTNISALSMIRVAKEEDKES
T2 sequence (Q9FU53 whole entry G53R, the tested form may be a part): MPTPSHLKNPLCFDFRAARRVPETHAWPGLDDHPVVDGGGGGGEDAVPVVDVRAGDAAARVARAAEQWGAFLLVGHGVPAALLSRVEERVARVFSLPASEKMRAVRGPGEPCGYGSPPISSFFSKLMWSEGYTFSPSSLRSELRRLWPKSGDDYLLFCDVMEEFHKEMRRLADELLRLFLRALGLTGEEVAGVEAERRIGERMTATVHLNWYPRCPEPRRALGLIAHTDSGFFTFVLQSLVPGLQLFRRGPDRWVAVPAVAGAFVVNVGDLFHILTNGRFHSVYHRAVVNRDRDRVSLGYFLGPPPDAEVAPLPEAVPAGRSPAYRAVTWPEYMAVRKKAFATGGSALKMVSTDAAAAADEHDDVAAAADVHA

Compound	Metabolized gibberellins (reaction products) from the substrate [1]	Metabolized gibberellins (reaction products) from the substrate [2]
C=C1C[C@]23C[C@@]1(O)CC[C@H]2[C@@]12CC=C[C@@](C)(C(=O)O1)[C@H]2[C@@H]3C(=O)O [GA5]	only the corresponding 3β-hydroxylated gibberellins (GA3 and GA88) were obtained; also recorded: produced the corresponding 3β-hydroxylated gibberellins, GA3 and GA88, respectively	produced the corresponding 3β-hydroxylated gibberellins (GA3, GA4, GA1, and GA38); also recorded: production of the corresponding 3β-hydroxylated gibberellins, GA3, GA4, GA1, and GA38, respectively
C=C1C[C@]23C[C@H]1CC[C@H]2[C@@]12CCC[C@@](C)(C(=O)O1)[C@H]2[C@@H]3C(=O)O [GA9]	synthesis of GA4 (3β-hydroxylation), GA7 (2,3-unsaturation and 3β-hydroxylation), and GA34 (2β-hydroxylation) were confirmed; also recorded: catalyzed the production of GA4 (3β-hydroxylation), GA7 (2,3-unsaturation and 3β-hydroxylation), and GA34 (2β-hydroxylation)	produced the corresponding 3β-hydroxylated gibberellins (GA3, GA4, GA1, and GA38); also recorded: production of the corresponding 3β-hydroxylated gibberellins, GA3, GA4, GA1, and GA38, respectively
C=C1C[C@]23C[C@@]1(O)CC[C@H]2[C@@]12CCC[C@@](C)(C(=O)O1)[C@H]2[C@@H]3C(=O)O [GA20]	–	produced the corresponding 3β-hydroxylated gibberellins (GA3, GA4, GA1, and GA38); also recorded: production of the corresponding 3β-hydroxylated gibberellins, GA3, GA4, GA1, and GA38, respectively
C=C1C[C@]23C[C@@]1(O)CC[C@H]2[C@@]12CCC[C@@](C)(C(=O)OC1)[C@H]2[C@@H]3C(=O)O [GA44]	only the corresponding 3β-hydroxylated gibberellins (GA3 and GA88) were obtained; also recorded: produced the corresponding 3β-hydroxylated gibberellins, GA3 and GA88, respectively	produced the corresponding 3β-hydroxylated gibberellins (GA3, GA4, GA1, and GA38); also recorded: production of the corresponding 3β-hydroxylated gibberellins, GA3, GA4, GA1, and GA38, respectively
